The values that follow come from ChEMBL document CHEMBL3638947, “TRPV1 antagonists” (2015).

What is called IC50 is the midpoint of a concentration-inhibition curve.

The target in this assay is Transient receptor potential cation channel subfamily V member 1 (Homo sapiens, UniProt Q8NER1). The experiment in a line: Activation Assay: The cDNA for human TRPV1 (hTRPV1) was isolated by reverse transcriptase-polymerase chain reaction (RT-PCR) from human small intestine poly A+ RNA supplied by Clontech (Palo Alto, Calif.) using primers designed surrounding the initiation and termination codons identical to the published sequences (Hayes et al. Pain 2000, 88, 205-215). The resulting cDNA PCR products were subcloned into pCIneo mammalian expression vector (Promega) and fully sequenced using fluorescent dye-terminator reagents (Prism, PerkinElmer Applied Biosystems Division) and a PerkinElmer Applied Biosystems Model 373 DNA sequencer or Model 310 genetic analyzer. Expression plasmids encoding the hTRPV1 cDNA were transfected into HEK293 cells using Lipofectamine. Forty-eight hours after transfection, the neomycin-resistant cells were selected with growth medium containing 800 ug/mL Geneticin (Life Technologies, formerly Gibco BRL). Surviving individual colonies were isolated and screened for TRPV1 activity. It is filed as cell-based.
Sequence of Transient receptor potential cation channel subfamily V member 1 (Q8NER1 whole entry): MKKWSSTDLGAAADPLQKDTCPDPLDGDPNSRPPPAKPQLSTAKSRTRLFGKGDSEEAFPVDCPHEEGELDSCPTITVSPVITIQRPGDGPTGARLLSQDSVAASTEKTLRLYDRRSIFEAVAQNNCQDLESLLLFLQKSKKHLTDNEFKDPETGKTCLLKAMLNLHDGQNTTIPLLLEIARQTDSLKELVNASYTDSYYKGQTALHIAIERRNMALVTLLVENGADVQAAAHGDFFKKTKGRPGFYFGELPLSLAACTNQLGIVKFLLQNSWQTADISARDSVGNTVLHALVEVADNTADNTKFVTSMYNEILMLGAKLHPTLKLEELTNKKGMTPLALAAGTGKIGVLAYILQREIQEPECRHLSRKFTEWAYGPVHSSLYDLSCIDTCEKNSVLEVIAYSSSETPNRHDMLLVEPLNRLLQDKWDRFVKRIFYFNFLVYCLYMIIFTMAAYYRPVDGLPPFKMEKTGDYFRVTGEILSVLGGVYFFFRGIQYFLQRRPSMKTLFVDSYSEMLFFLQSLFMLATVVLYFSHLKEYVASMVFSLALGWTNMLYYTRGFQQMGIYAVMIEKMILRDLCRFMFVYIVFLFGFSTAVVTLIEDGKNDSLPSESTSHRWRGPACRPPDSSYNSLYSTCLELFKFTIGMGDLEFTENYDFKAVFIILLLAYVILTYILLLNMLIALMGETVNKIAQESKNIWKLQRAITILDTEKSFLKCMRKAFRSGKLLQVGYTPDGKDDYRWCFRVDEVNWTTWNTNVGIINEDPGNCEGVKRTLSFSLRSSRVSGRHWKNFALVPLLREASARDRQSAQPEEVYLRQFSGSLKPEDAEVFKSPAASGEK
Regarding `O=C1CCc2ccc(NC(=O)N[C@@H]3CC(CF)(CF)Oc4cc(Cl)ccc43)cc2N1`, the concentration for half-maximal inhibition (IC50) came out at 35 nM.

For the compound `CN1C(=O)NCc2c(NC(=O)N[C@@H]3CC(CF)(CF)Oc4c3ccc(Cl)c4F)cccc21`, the IC50 is 25 nM.

Take `CN1C(=O)NCc2c(NC(=O)N[C@@H]3CC(C)(C)Oc4ccccc43)cccc21`: the IC50 came out at 37 nM.

For the compound `CN1C(=O)NCc2c(NC(=O)N[C@@H]3CC(C)(C)Oc4cc(Cl)ccc43)cccc21`, the IC50 was 42 nM.

For the compound `Cn1c(=O)ccc2c(NC(=O)N[C@@H]3CC(C)(C)Oc4cc(F)ccc43)cccc21`, the IC50 was found to be 10 nM.

For `CCC1(CC)C[C@@H](NC(=O)Nc2cccc3c2CNC(=O)N3C)c2ccc(F)cc2O1`, the IC50 was found to be 24 nM.

Consider `CN1C(=O)NCc2c(NC(=O)N[C@@H]3CC(C)(C)c4ccccc43)cccc21`, for which the concentration for half-maximal inhibition (IC50) is 29 nM.

For `CN1Cc2ccc(NC(=O)N[C@@H]3CC(C)(C)Oc4c(F)cccc43)cc2NC1=O`, the IC50 amounted to 820 nM.

Turning to `CN1C(=O)CCc2ccc(NC(=O)N[C@@H]3CCOc4c3cccc4C(F)(F)F)cc21`, the concentration for half-maximal inhibition (IC50) turned out to be 94 nM.
